# According to patent US20240208992A1, “MACROCYCLES AS CFTR MODULATORS” (Idorsia Pharmaceuticals Ltd, priority 2021, published 2024):
# Target: human F508del-CFTR (Homo sapiens, UniProt P13569, DEL508-508)
# Test: F508del-CFTR cell surface expression (corrector activity), DiscoveRx ß-galactosidase complementation chemiluminescence assay in recombinant U2OS cell line;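 also: U2OS cells co-expressing ProLink-tagged F508del-CFTR and a membrane-anchored enzyme acceptor, where more surface CFTR restores β-galactosidase activity measured by chemiluminescence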
# Conditions: U2OS cells, 16h compound incubation; for EC50: EC50, F508del-CFTR cell surface expression, geomean of several measurements; for Emax: U2OS, in relation to the Emax of the corrector lumacaftor (=100%), arithmetic mean
# Chain of human F508del-CFTR (P13569 with tags, fused parts or gaps DEL508-508): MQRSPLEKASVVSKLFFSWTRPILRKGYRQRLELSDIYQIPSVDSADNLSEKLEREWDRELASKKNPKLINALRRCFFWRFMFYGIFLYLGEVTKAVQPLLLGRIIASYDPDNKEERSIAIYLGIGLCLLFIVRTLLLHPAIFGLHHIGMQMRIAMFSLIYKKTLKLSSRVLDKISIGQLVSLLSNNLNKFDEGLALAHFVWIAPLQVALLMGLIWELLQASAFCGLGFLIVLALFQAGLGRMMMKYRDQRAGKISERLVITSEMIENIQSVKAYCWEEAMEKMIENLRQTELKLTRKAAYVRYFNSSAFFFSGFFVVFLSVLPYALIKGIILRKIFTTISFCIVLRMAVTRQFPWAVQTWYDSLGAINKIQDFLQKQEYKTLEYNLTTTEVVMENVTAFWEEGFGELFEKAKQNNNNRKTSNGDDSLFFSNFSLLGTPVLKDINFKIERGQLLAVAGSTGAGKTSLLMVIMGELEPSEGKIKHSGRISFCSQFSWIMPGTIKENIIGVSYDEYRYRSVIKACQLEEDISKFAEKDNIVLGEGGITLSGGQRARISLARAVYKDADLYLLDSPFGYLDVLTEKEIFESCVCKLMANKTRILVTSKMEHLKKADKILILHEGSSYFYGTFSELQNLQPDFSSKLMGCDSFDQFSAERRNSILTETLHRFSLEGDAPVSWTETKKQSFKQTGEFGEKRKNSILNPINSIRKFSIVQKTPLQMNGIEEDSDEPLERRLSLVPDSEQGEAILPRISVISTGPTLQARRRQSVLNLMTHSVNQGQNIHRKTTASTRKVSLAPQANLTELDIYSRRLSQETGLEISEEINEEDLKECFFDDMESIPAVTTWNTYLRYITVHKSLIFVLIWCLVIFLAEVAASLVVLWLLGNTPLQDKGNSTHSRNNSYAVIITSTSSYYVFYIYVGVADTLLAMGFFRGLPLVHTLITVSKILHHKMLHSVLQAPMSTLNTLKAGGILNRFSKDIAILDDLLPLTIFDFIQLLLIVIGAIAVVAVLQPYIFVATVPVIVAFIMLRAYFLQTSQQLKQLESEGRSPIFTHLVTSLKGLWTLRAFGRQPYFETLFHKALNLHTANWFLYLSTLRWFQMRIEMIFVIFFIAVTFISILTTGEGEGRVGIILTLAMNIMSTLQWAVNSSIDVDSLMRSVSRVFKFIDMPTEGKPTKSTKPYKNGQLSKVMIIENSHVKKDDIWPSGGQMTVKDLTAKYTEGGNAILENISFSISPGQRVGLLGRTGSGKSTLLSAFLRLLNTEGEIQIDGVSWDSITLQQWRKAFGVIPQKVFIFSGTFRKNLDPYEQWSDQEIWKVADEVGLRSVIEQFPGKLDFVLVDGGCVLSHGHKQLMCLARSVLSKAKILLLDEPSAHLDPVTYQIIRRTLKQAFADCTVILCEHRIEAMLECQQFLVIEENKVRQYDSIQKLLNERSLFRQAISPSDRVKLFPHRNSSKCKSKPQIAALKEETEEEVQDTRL
SMILES,EC50 [nM],Emax [%]
"CC(C)C[C@H]1C(=O)N(C)C2(CC2)C(=O)N[C@H](Cc2ccccc2)COc2ccc3ncc(F)cc3c2C(=O)N[C@H](C(=O)NCCn2nnc(C3CC3)n2)CC(=O)N1C [Example 817, (3′S,7′S,13′R)-13′-benzyl-N-(2-(5-cyclopropyl-2H-tetrazol-2-yl)ethyl)-20′-fluoro-7′-isobutyl-6′,9′-dimethyl-1′,5′,8′,11′-tetraoxo-2′,3′,4′,5′,6′,7′,8′,9′,11′,12′,13′,14′-dodecahydro-1′H-spiro[cyclopropane-1,10′-[1]oxa[4,7,10,14]tetraazacycloheptadecino[16,17-f]quinoline]-3′-carboxamide]",420,375
"COc1nc(C)cc2c1C(=O)N[C@H](C(=O)NCCc1noc(C3CC3)n1)CC(=O)N(C)[C@@H](CC(C)C)C(=O)N(C)[C@H](Cc1nc(C(F)(F)F)no1)C(=O)N[C@H](Cc1ccccc1)CO2 [Example 820, (3R,6R,9S,13S)-3-benzyl-N-(2-(5-cyclopropyl-1,2,4-oxadiazol-3-yl)ethyl)-9-isobutyl-16-methoxy-7,10,18-trimethyl-5,8,11,15-tetraoxo-6-((3-(trifluoromethyl)-1,2,4-oxadiazol-5-yl)methyl)-2,3,4,5,6,7,8,9,10,11,12,13,14,15-tetradecahydropyrido[3,4-p][1]oxa[4,7,10,14]tetraazacycloheptadecine-13-carboxamide]",49,461
"COc1noc(CCNC(=O)[C@@H]2CC(=O)N(C)[C@@H](CC(C)C)C(=O)N3CCCC[C@@H]3C(=O)N[C@H](Cc3ccccc3)COc3ccc4ncc(F)cc4c3C(=O)N2)n1 [Example 821, (9S,13S,19aR,22R)-22-benzyl-5-fluoro-13-isobutyl-N-(2-(3-methoxy-1,2,4-oxadiazol-5-yl)ethyl)-12-methyl-7,11,14,20-tetraoxo-7,8,9,10,11,12,13,14,17,18,19,19a,20,21,22,23-hexadecahydro-16H-pyrido[2′,1′:6,7][1]oxa[4,7,10,14]tetraazacycloheptadecino[16,17-f]quinoline-9-carboxamide]",200,392

# Results, then the compound that gave them:
EC50 [nM],Emax [%],SMILES
741,286,"COc1cc(CCNC(=O)[C@@H]2CC(=O)N(C)[C@@H](CC(C)C)C(=O)N(C)[C@@H](Cc3nc(-c4ccc(F)cn4)no3)C(=O)N[C@H](Cc3ccccc3)COc3cnc4ccc(F)cc4c3C(=O)N2)on1 [Example 816, (3S,7S,10S,13R)-13-benzyl-20-fluoro-10-((3-(5-fluoropyridin-2-yl)-1,2,4-oxadiazol-5-yl)methyl)-7-isobutyl-N-(2-(3-methoxyisoxazol-5-yl)ethyl)-6,9-dimethyl-1,5,8,11-tetraoxo-1,2,3,4,5,6,7,8,9,10,11,12,13,14-tetradecahydro-[1]oxa[4,7,10,14]tetraazacycloheptadecino[17,16-c]quinoline-3-carboxamide]"
385,359,"COc1cc(CCNC(=O)[C@@H]2CC(=O)N(C)[C@@H](CC(C)C)C(=O)N(C)C3(CC3)C(=O)N[C@H](Cc3ccccc3)COc3ccc4ncc(F)cc4c3C(=O)N2)on1 [Example 818, (3′S,7′S,13′R)-13′-benzyl-20′-fluoro-7′-isobutyl-N-(2-(3-methoxyisoxazol-5-yl)ethyl)-6′,9′-dimethyl-1′,5′,8′,11′-tetraoxo-2′,3′,4′,5′,6′,7′,8′,9′,11′,12′,13′,14′-dodecahydro-1′H-spiro[cyclopropane-1,10′-[1]oxa[4,7,10,14]tetraazacycloheptadecino[16,17-f]quinoline]-3′-carboxamide]"
276,431,"COc1cc(CCNC(=O)[C@@H]2CC(=O)N(C)[C@@H](CC(C)C)C(=O)N(C)[C@H](CC(F)F)C(=O)N[C@H](Cc3ccccc3)COc3ccc4ncc(F)cc4c3C(=O)N2)on1 [Example 819, (3S,7S,10R,13R)-13-benzyl-10-(2,2-difluoroethyl)-20-fluoro-7-isobutyl-N-(2-(3-methoxyisoxazol-5-yl)ethyl)-6,9-dimethyl-1,5,8,11-tetraoxo-1,2,3,4,5,6,7,8,9,10,11,12,13,14-tetradecahydro-[1]oxa[4,7,10,14]tetraazacycloheptadecino[16,17-f]quinoline-3-carboxamide]"
